From patent publication US6060516A, “N^1 -propargylhydrazines, N^2 -propargylhydrazines and their analogs for the treatment of depression, anxiety and neurodegeneration” (CV Technologies, Inc., priority 1998, dated 2000) come the findings set out here.

Assay [1] concerns serotonin uptake in rat striatal prisms. Description: Serotonin (5-HT) uptake inhibition in rat striatal prisms in vitro. The format is biochemical. Here is the method: CVT-P040 was evaluated for the ability to inhibit serotonin uptake in rat striatal prisms using the procedure of Martin, I. L., Baker, G. B. and Mitchell, P. R. (1978), The effect of viloxazine hydrochloride on the transport of noradrenaline, dopamine, 5-hydroxytryptamine and γ-aminobutyric acid in rat brain tissue Neuropharmacology 17: 421-423. Briefly, untreated rats were killed by guillotine decapitation, their brains removed, placed on an ice-cooled plate and the striatum was dissected out from the rest of the brain. The striatum was then chopped into 0.1×0.1×2 mm prisms using a Mcllwain tissue chopper and suspended in 5 volumes incubation medium containing 123 mM sodium chloride, 5 mM potassium chloride, 2.7 mM calcium chloride, 1.2 mM magnesium sulphate, 20 mM TRIS-HCl buffer (pH 7.5), 1 mM ascorbic acid, 10 mM glucose and 12.5 μM nialamide. The suspension was stored out of direct light and buried in ice. Aliquots (1 ml) of the tissue suspension were added to flasks containing 4 ml of incubation medium and this mixture was incubated for 15 min at 37° C. in a shaking water bath. Next, 10 µl of the appropriate chemical was added to each tube except the blanks and controls, followed by the addition of 10 μl of ^3 H-5-HT (final concentration 0.1 μM). The mixtures were incubated for 5 min at 37° C., then quickly filtered with a Millipore vacuum filter apparatus and rinsed two times with 5 ml warm (37° C.) incubation medium. Filters were transferred to scintillation vials and 10 ml Ready Safe scintillation cocktail was added to each. Radioactive content per tube was counted using a liquid scintillation spectrophotometer. Percent 5-HT uptake inhibition was calculated by applying the following equation: [formula]

Assay [2] relates to rat brain and liver monoamine oxidase-A. Description: Monoamine oxidase-A inhibiting activity ex vivo. The assay is classed as in vivo. On the procedure: Radiolabelled 5-hydroxytryptamine was used as a substrate for monoamine oxidase-A. The compounds of interest were either injected intraperitonealy in DMSO or administered by gavage in water for various periods. The animals were killed by decapitation and the brains and livers immediately removed and frozen until assayed for monoamine oxidase-A activity. Tissues were homogenized and appropriately diluted in buffer prior to incubation. Incubations proceeded at 37° C. for 10 minutes. Incubation was terminated by the addition of acid and the radiolabelled product (5-hydroxyindoleacetaldehyde and 5-hydroxyindoleacetic acid) was extracted and quantified by liquid scintillation counting procedures. Incubations were done in triplicate and incubations containing phenelzine were included for comparison. The percent inhibition of monoamine oxidase-A activity compared to controls containing no drug was calculated.
Values are the mean ± the standard error based on (n) determinations.
Oral doses were administered as 75 μmol/kg on day 1, 75 μmol/kg on
day 2 and the animals were killed 5 hours later.

Assay [3] deals with valine, alanine and gamma-aminobutyric acid (GABA) concentrations in rat brain. Description: Brain valine, alanine and gamma-aminobutyric acid (GABA) concentrations. The format is in vivo. As to conditions: for GABA / Valine: 150 μmol/kg, 5 hr, ip; for GABA concentrations: doses as high as 150 μmol/kg; for GABA concentrations / elevation of alanine: in words. Here is the method: Effects of various doses of CVT-P040, CVT-P041 and phenelzine on the concentrations of some brain amino acids were evaluated by examining concentrations of gamma-aminobutyric acid (GABA) 5 hours after the injection of the drug. Briefly, rats were injected with CVT-P040 ([…]), vehicle, or phenelzine (150 μmol/kg) and killed 3 or 5 hours later. The brains were removed and divided in half. One half of the brain was frozen in isopentane on dry ice and retained for estimates of GABA concentrations. GABA and other amino acid concentrations were estimated using the method of Wong, J. T. F., Baker, G. B. and Coutts, R. T. (1990), A rapid, sensitive assay for γ-aminobutyric acid in brain using electron-capture gas chromatography, Res. Comm. Chem. Path. Pharmacol. 70: 115-122.

For assay [4], the target named is T1, rat brain monoamine oxidase-A (Rattus norvegicus, UniProt P21396).
T1 construct: appropriately diluted homogenates of rat brain or liver; from tissue; host or cells: rat brain or liver homogenate
T1 sequence (P21396 1-526): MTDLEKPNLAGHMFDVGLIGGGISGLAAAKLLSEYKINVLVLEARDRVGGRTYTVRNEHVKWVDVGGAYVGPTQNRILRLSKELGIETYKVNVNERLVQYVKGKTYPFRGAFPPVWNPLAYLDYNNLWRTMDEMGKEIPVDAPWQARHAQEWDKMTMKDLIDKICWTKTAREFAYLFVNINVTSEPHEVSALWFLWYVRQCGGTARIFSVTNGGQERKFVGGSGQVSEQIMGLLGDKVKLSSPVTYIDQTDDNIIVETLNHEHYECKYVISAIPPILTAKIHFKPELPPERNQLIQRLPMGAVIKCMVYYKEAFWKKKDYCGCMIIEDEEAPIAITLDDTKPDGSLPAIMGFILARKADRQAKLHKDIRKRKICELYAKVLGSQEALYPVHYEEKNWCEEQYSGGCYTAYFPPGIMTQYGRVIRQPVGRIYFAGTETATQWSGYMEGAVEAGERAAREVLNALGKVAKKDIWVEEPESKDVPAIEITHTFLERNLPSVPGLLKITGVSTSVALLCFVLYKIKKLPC
The experiment in a line: Monoamine oxidase-A inhibiting activity in vitro (radiochemical, 5-hydroxytryptamine substrate, rat brain homogenate). The format is biochemical. The following applies: for inhibition at 100 µM: 1 × 10^-4 M; for inhibition at 10 µM: 1 × 10^-5 M; for inhibition at 1 µM: 1 × 10^-6 M; for inhibition at 0.1 µM: 1 × 10^-7 M; for inhibition at 0.01 µM: 1 × 10^-8 M. On the procedure: Radiolabelled 5-hydroxytryptamine was used as the substrate for monoamine oxidase-A. Various concentrations of the compounds were incubated in appropriately diluted homogenates of rat brain or liver in a 0.2 M potassium phosphate buffer. Incubations proceeded at 37° C. for 10 minutes. Incubation was terminated by the addition of acid and the radiolabelled product (5-hydroxyindoleacetic acid) was extracted and quantified by liquid scintillation counting procedures. Incubations were done in triplicate and incubations containing phenelzine were included for comparison. The percent inhibition of monoamine oxidase-A activity compared to controls without the compounds of the present invention was calculated.

Assay [5] deals with NA, DA, 5-HT, 5-HIAA and DOPAC concentrations in rat hypothalamus. Description: Rat hypothalamus amine and amine metabolite concentrations. The format is in vivo. The following applies: 2 × 75 μmol/kg per os.
The mark [6] stands for this setting: brain, 5.75 μmol/kg, 5 hr, i.p. in 10% DMSO.
The mark [7] stands for this setting: brain, 150 μmol/kg, 5 hr, i.p. in 10% DMSO.
Setting [8] is: brain, 2 × 75 μmol/kg per os (day 1 and day 2, killed 5 hours later).
Setting [9] is: liver, 5.75 μmol/kg, 5 hr, i.p. in 10% DMSO.
Setting [10] is: liver, 2 × 75 μmol/kg per os (day 1 and day 2, killed 5 hours later).

As for `C#CCN(N)CCc1ccccc1` [CVT-P040, N^1 -propargylphenelzine], the entries for the “% Inhibition (serotonin uptake)” value in assay [1] (1 × 10^-4 M), in assay [1] (1 × 10^-5 M) and in assay [1] (1 × 10^-6 M) were 90.1 ± 3.3%, 50.2 ± 2.5% and 49.1 ± 4.3%, respectively. The “% Inhibition Monoamine Oxidase-A” value in assay [2] (brain, 0.58 μmol/kg, 5 hr, i.p. in 10% DMSO) amounted to 7.2 ± 5.1%; in assay [2] (setting [6]), 9.1 ± 4.9%; in assay [2] (brain, 57.5 μmol/kg, 5 hr, i.p. in 10% DMSO) it was 86.6 ± 6.7%; in assay [2] (setting [7]) it was 96.7 ± 0.6%; in assay [2] (brain, 173 μmol/kg, 5 hr, i.p. in 10% DMSO), 98.4 ± 0.1%; in assay [2] (setting [8]), 96.9 ± 0.8%. Also, the “% Inhibition Monoamine Oxidase-A” value in assay [2] (liver, 0.58 μmol/kg, 5 hr, i.p. in 10% DMSO) is -6.1 ± 4.4%; in assay [2] (setting [9]), 43.7 ± 5.4%; in assay [2] (liver, 57.5 μmol/kg, 5 hr, i.p. in 10% DMSO), 91.7 ± 2.3%; in assay [2] (liver, 173 μmol/kg, 5 hr, i.p. in 10% DMSO), 97.7 ± 0.3%; in assay [2] (setting [10]), 95.4 ± 0.7%. Further, the GABA in assay [3] was 270 ± 23 µg/g. For the same compound, in assay [3], the Valine amounted to 22.9 ± 1.4 µg/g. Moreover, in assay [3], the GABA concentrations entry is “did not elevate GABA concentrations”. In addition, the elevation of alanine result in assay [3] is given as “elevation of alanine was not seen”. The inhibition (as a rule, the share of the control response that was lost under treatment) at 100 µM in assay [4] turned out to be 99.5%. In addition, in assay [4], the inhibition at 10 µM is 99.1%. Moreover, in assay [4], the inhibition at 1 µM is 71.1%. In addition, the inhibition at 0.1 µM in assay [4] was found to be 20.6%. In assay [4], the inhibition at 0.01 µM came to 0.7%.

`C#CCN(CCc1ccccc1)NC(C)=O` [CVT-P041, N^1 -propargyl-N^2 -acetylphenelzine]: in assay [5], the 5-HT came to 946 ng/g and the DA amounted to 553 ± 129 ng/g. For the same compound, the “% Inhibition (serotonin uptake)” value in assay [1] (1 × 10^-4 M) came out at 22.2 ± 4.6%. The “% Inhibition Monoamine Oxidase-A” value in assay [2] (setting [7]) came out at 98.4 ± 0.0%. Further, the “% Inhibition Monoamine Oxidase-A” value in assay [2] (setting [8]) is listed as 92.9 ± 1.7%. Also, the “% Inhibition Monoamine Oxidase-A” value in assay [2] (setting [10]) stood at 98.3 ± 0.2%. Moreover, in assay [3], the GABA came to 253 ± 0 µg/g, the Valine amounted to 20.6 ± 0.5 µg/g, the GABA concentrations entry is given as “did not elevate GABA concentrations” and the elevation of alanine result is listed as “elevation of alanine was not seen”. In assay [4], this compound yielded an inhibition at 100 µM of 79.5%, an inhibition at 10 µM of 27.7%, an inhibition at 1 µM of 4.2% and an inhibition at 0.1 µM of 1.8%. This compound also came in with an inhibition at 0.01 µM in assay [4] of 0.3%.

Turning to `NNCCc1ccccc1` [phenelzine, 1-(2-phenyl) ethylhydrazine, reference compound], in assay [5], the 5-HT is on record as 1232 ± 87 ng/g and the DA was found to be 607 ± 103 ng/g. Moreover, the “% Inhibition Monoamine Oxidase-A” value in assay [2] (setting [6]) came to 9.1 ± 5.3%. Further, the “% Inhibition Monoamine Oxidase-A” value in assay [2] (setting [7]) is given as 97.2%. Besides, in assay [2] (setting [8]), the “% Inhibition Monoamine Oxidase-A” value was 96.5 ± 1.2%. In addition, the “% Inhibition Monoamine Oxidase-A” value in assay [2] (setting [9]) stood at 36.4 ± 5.3%. In addition, the “% Inhibition Monoamine Oxidase-A” value in assay [2] (setting [10]) is 97.7 ± 0.3%. Moreover, in assay [3], the GABA was 773 ± 37 µg/g and the Valine was determined as 22.9 ± 0.4 µg/g. In assay [4], this compound had an inhibition at 100 µM of 100%, an inhibition at 10 µM of 100%, an inhibition at 1 µM of 98.9% and an inhibition at 0.1 µM of 62.9%. The compound further returned an inhibition at 0.01 µM in assay [4] of 6.9%.
